Reference: patent US10875851B2, “Factor XIIa inhibitors” (Merck Sharp & Dohme Corp., priority 2016, dated 2020)

Target: human Factor XIIa (Homo sapiens (Human), UniProt P00748)
Experiment: Factor XIIa Assay
Type: biochemical
Details: purified human Factor XIIa 500 pM; substrate n-Acetyl-Lys-Pro-Arg-AFC 100 μM; pH 7.4; read-out: FXIIa IC50
Method in brief: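 Purified human FXIIa at 500 pM final with 100 μM n-Acetyl-Lys-Pro-Arg-AFC in 50 mM HEPES, 150 mM NaCl, 5 mM CaCl2, 0.1% PEG 8000, pH 7.4, at room temperature or 37° C. Initial fluorogenic hydrolysis rates measured after enzyme–inhibitor equilibration; IC50 taken where Vi=Vo/2.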

Sequence of human Factor XIIa (P00748 373-615): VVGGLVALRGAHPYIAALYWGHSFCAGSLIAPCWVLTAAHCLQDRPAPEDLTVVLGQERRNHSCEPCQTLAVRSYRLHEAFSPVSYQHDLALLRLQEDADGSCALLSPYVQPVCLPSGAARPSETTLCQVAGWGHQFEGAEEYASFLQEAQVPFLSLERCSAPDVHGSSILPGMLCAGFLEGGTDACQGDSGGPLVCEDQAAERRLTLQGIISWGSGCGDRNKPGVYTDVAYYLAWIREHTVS

C[C@@H]1N=C(N2CCN(C(=O)[C@@H](CCCCN(C)C)N(C)C3CCC4(CC3)CCN(Cc3ccccc3)C4)[C@H](C(=O)NCc3cccs3)C2)O[C@H]1c1ccccc1 (stereo partly drawn) [Example 131, (2S)-1-[N^2-(2-benzyl-2-azaspiro[4.5]dec-8-yl)-N^2,N^6,N^6-trimethyl-D-lysl]-4-[(4S,5S)-4-methyl-5-phenyl-4,5-dihydro-1,3-oxazol-2-yl]-N-(thiophen-2-ylmethyl)piperazine-2-carboxamide]
IC50: 1.8 nM

CC[C@@H](NC1CCC2(CC1)CCN(Cc1ccccc1)C2)C(=O)N1CCN(C(=O)Oc2ccc(C)c(C)c2Cl)C[C@H]1C(=O)NCc1ccc(CN)c(OC)c1 (stereo partly drawn) [Example 107, 2-chloro-3,4-dimethylphenyl (3S)-3-{[4-(aminomethyl)-3-methoxybenzyl]carbamoyl}-4-{(2R)-2-[(2-benzyl-2-azaspiro[4.5]dec-8-yl)amino]butanoyl}piperazine-1-carboxylate]
IC50: 14 nM

Cc1ccc(OC(=O)N2CCN(C(=O)[C@@H](CCCCN3CCCC3)NC3CCC4(CC3)CCN(Cc3ccccc3)C4)[C@H](C(=O)NCc3cccs3)C2)c(Cl)c1C (stereo partly drawn) [Example 109, 2-chloro-3,4-dimethylphenyl (3S)-4-[N-(2-benzyl-2-azaspiro[4.5]dec-8-yl)-6-pyrrolidin-1-yl-D-norleucyl]-3-[(thiophen-2-ylmethyl)carbamoyl]piperazine-1-carboxylate]
IC50: 1 nM

CCS(=O)(=O)N1CCC([C@@H](NC2CCCCC2)C(=O)N2CCN(C(=O)Oc3ccccc3Cl)C[C@H]2C(=O)NCc2cccs2)CC1 [Example 61, 2-chlorophenyl (3S)-4-{(2R)-2-(cyclohexylamino)-2-[1-(ethylsulfonyl)piperidin-4-yl]acetyl}-3-[(thiophen-2-ylmethyl)carbamoyl]piperazine-1-carboxylate]
IC50: 4.2 nM

Cc1ccc(OC(=O)N2CCN(C(=O)[C@@H](CCCCN(C)C)N(C)C3CCC4(CC3)CCN(Cc3ccccc3)C4)[C@H](C(=O)NCc3cccs3)C2)c(Cl)c1C (stereo partly drawn) [Example 100, 2-chloro-3,4-dimethylphenyl (3S)-4-[N^2-(2-benzyl-2-azaspiro[4.5]dec-8-yl)-N^2,N^6,N^6-trimethyl-D-lysyl]-3-[(thiophen-2-ylmethyl)carbamoyl]piperazine-1-carboxylate]
IC50: 0.5 nM

NCc1cccc(OC(=O)N2CCN(C(=O)[C@@H](CC3CCCCC3)NC3CCCCC3)[C@H](C(=O)NCc3cccs3)C2)c1Cl [Example 55, 3-(aminomethyl)-2-chlorophenyl (3S)-4-(N,3-dicyclohexyl-D-alanyl)-3-[(thiophen-2-ylmethyl)carbamoyl]piperazine-1-carboxylate]
IC50: 1.1 nM

O=C(NCc1cccs1)[C@@H]1CN(C(=O)Oc2ccccc2Cl)CCN1C(=O)[C@@H](CCCCN1CCCS1(=O)=O)NC1CCCCC1 [Example 77, 2-chlorophenyl (3S)-4-[N-cyclohexyl-6-(1,1-dioxidoisothiazolidin-2-yl)-D-norleucyl]-3-[(thiophen-2-ylmethyl)carbamoyl]piperazine-1-carboxylate]
IC50: 4.6 nM

Cc1ccc(OC(=O)N2CCN(C(=O)[C@H](N)CCCCN(C)C)[C@H](C(=O)NCc3cccs3)C2)c(Cl)c1C [Example 98, 2-chloro-3,4-dimethylphenyl (3S)-4-(N^6,N^6-dimethyl-D-lysyl)-3-[(thiophen-2-ylmethyl)carbamoyl]piperazine-1-carboxylate]
IC50: 7.2 nM

Cc1ccc(OC(=O)N2CCN(C(=O)[C@@H](CCCCN3CCCC3C)NC3CCC4(CC3)CCN(Cc3ccccc3)C4)[C@H](C(=O)NCc3cccs3)C2)c(Cl)c1C (stereo partly drawn) [Example 110, 2-chloro-3,4-dimethylphenyl (3S)-4-[N-(2-benzyl-2-azaspiro[4.5]dec-8-yl)-6-(2-methylpyrrolidin-1-yl)-D-norleucyl]-3-[(thiophen-2-ylmethyl)carbamoyl]piperazine-1-carboxylate]
IC50: 0.3 nM
